Experiments:
Experiment in all cases: KINOMEscan scanMAX
Assay type in all cases: binding
[1] = biological target: T1, ABL1(F317I)-phosphorylated (Homo sapiens, UniProt P00519, F317I); conditions: read-out: Percent Control
T1 construct: purchased Eurofins Discovery (DiscoverX KINOMEscan scanMAX)
Description: (§1) The kinome-wide binding assay was performed by Eurofins Discovery using the scanMAX screening platform. More information can be found on the Eurofins Discovery Web site.

[2] = biological target: T2, ALK(L1196M) (Homo sapiens, UniProt Q9UM73, L1196M); conditions: read-out: Percent Control
T2 construct: purchased Eurofins Discovery (DiscoverX KINOMEscan scanMAX)
Description: as §1

[3] = biological target: T3, BRSK2 (Homo sapiens, UniProt Q8IWQ3); conditions: read-out: Percent Control
T3 construct: purchased Eurofins Discovery (DiscoverX KINOMEscan scanMAX)
Description: as §1

[4] = biological target: T4, BUB1 (Homo sapiens, UniProt O43683); conditions: read-out: Percent Control
T4 construct: purchased Eurofins Discovery (DiscoverX KINOMEscan scanMAX)
Description: as §1

[5] = biological target: T5, CDK5 (Homo sapiens, UniProt Q00535); conditions: read-out: Percent Control
T5 construct: purchased Eurofins Discovery (DiscoverX KINOMEscan scanMAX)
Description: as §1

[6] = biological target: T6, CSNK1G3 (Homo sapiens, UniProt Q9Y6M4); conditions: read-out: Percent Control
T6 construct: purchased Eurofins Discovery (DiscoverX KINOMEscan scanMAX)
Description: as §1

[7] = biological target: T7, DAPK3 (Homo sapiens, UniProt O43293); conditions: read-out: Percent Control
T7 construct: purchased Eurofins Discovery (DiscoverX KINOMEscan scanMAX)
Description: as §1

[8] = biological target: T8, EGFR(L747-E749del, A750P) (Homo sapiens, UniProt P00533, A750P/DEL747-749); conditions: read-out: Percent Control
T8 construct: purchased Eurofins Discovery (DiscoverX KINOMEscan scanMAX)
Description: as §1

[9] = system: EGFR(L747-T751del,Sins)
Description: as §1

[10] = biological target: T9, FGFR1 (Homo sapiens, UniProt P11362); conditions: read-out: Percent Control
T9 construct: purchased Eurofins Discovery (DiscoverX KINOMEscan scanMAX)
Description: as §1

[11] = biological target: T10, GCN2(Kin.Dom.2,S808G) (Homo sapiens, UniProt Q9P2K8, S808G); conditions: read-out: Percent Control
T10 construct: GCN2(Kin.Dom.2,S808G); purchased Eurofins Discovery (DiscoverX KINOMEscan scanMAX)
Description: as §1

[12] = biological target: T11, GSK3A (Homo sapiens, UniProt P49840); conditions: read-out: Percent Control
T11 construct: purchased Eurofins Discovery (DiscoverX KINOMEscan scanMAX)
Description: as §1

[13] = biological target: T12, HPK1 (Homo sapiens, UniProt Q92918); conditions: read-out: Percent Control
T12 construct: purchased Eurofins Discovery (DiscoverX KINOMEscan scanMAX)
Description: as §1

[14] = biological target: T13, IKK-alpha (Homo sapiens, UniProt O15111); conditions: read-out: Percent Control
T13 construct: purchased Eurofins Discovery (DiscoverX KINOMEscan scanMAX)
Description: as §1

[15] = biological target: T14, KIT(L576P) (Homo sapiens, UniProt P10721, L576P); conditions: read-out: Percent Control
T14 construct: purchased Eurofins Discovery (DiscoverX KINOMEscan scanMAX)
Description: as §1

[16] = biological target: T15, MAP4K5 (Homo sapiens, UniProt Q9Y4K4); conditions: read-out: Percent Control
T15 construct: purchased Eurofins Discovery (DiscoverX KINOMEscan scanMAX)
Description: as §1

[17] = biological target: T16, MAPKAPK2 (Homo sapiens, UniProt P49137); conditions: read-out: Percent Control
T16 construct: purchased Eurofins Discovery (DiscoverX KINOMEscan scanMAX)
Description: as §1

[18] = biological target: T17, NDR2 (Homo sapiens, UniProt Q9Y2H1); conditions: read-out: Percent Control
T17 construct: purchased Eurofins Discovery (DiscoverX KINOMEscan scanMAX)
Description: as §1

[19] = biological target: T18, NEK2 (Homo sapiens, UniProt P51955); conditions: read-out: Percent Control
T18 construct: purchased Eurofins Discovery (DiscoverX KINOMEscan scanMAX)
Description: as §1

[20] = biological target: T19, NEK7 (Homo sapiens, UniProt Q8TDX7); conditions: read-out: Percent Control
T19 construct: purchased Eurofins Discovery (DiscoverX KINOMEscan scanMAX)
Description: as §1

[21] = biological target: T20, NIM1 (Homo sapiens, UniProt Q8IY84); conditions: read-out: Percent Control
T20 construct: purchased Eurofins Discovery (DiscoverX KINOMEscan scanMAX)
Description: as §1

[22] = biological target: T21, PRKCH (Homo sapiens, UniProt P24723); conditions: read-out: Percent Control
T21 construct: purchased Eurofins Discovery (DiscoverX KINOMEscan scanMAX)
Description: as §1

[23] = biological target: T22, PRKX (Homo sapiens, UniProt P51817); conditions: read-out: Percent Control
T22 construct: purchased Eurofins Discovery (DiscoverX KINOMEscan scanMAX)
Description: as §1

[24] = biological target: T23, RIOK3 (Homo sapiens, UniProt O14730); conditions: read-out: Percent Control
T23 construct: purchased Eurofins Discovery (DiscoverX KINOMEscan scanMAX)
Description: as §1

[25] = biological target: T24, ROCK1 (Homo sapiens, UniProt Q13464); conditions: read-out: Percent Control
T24 construct: purchased Eurofins Discovery (DiscoverX KINOMEscan scanMAX)
Description: as §1

[26] = biological target: T25, S6K1 (Homo sapiens, UniProt P23443); conditions: read-out: Percent Control
T25 construct: purchased Eurofins Discovery (DiscoverX KINOMEscan scanMAX)
Description: as §1

[27] = biological target: T26, SBK1 (Homo sapiens, UniProt Q52WX2); conditions: read-out: Percent Control
T26 construct: purchased Eurofins Discovery (DiscoverX KINOMEscan scanMAX)
Description: as §1

[28] = biological target: T27, STK35 (Homo sapiens, UniProt Q8TDR2); conditions: read-out: Percent Control
T27 construct: purchased Eurofins Discovery (DiscoverX KINOMEscan scanMAX)
Description: as §1

[29] = biological target: T28, TGFBR1 (Homo sapiens, UniProt P36897); conditions: read-out: Percent Control
T28 construct: purchased Eurofins Discovery (DiscoverX KINOMEscan scanMAX)
Description: as §1

[30] = biological target: T29, TXK (Homo sapiens, UniProt P42681); conditions: read-out: Percent Control
T29 construct: purchased Eurofins Discovery (DiscoverX KINOMEscan scanMAX)
Description: as §1

[31] = biological target: T30, ULK1 (Homo sapiens, UniProt O75385); conditions: read-out: Percent Control
T30 construct: purchased Eurofins Discovery (DiscoverX KINOMEscan scanMAX)
Description: as §1

[32] = biological target: T31, p38-alpha (Homo sapiens, UniProt Q16539); conditions: read-out: Percent Control
T31 construct: purchased Eurofins Discovery (DiscoverX KINOMEscan scanMAX)
Description: as §1

[33] = biological target: T32, p38-beta (Homo sapiens, UniProt Q15759); conditions: read-out: Percent Control
T32 construct: purchased Eurofins Discovery (DiscoverX KINOMEscan scanMAX)
Description: as §1

T17 sequence (Q9Y2H1 whole entry): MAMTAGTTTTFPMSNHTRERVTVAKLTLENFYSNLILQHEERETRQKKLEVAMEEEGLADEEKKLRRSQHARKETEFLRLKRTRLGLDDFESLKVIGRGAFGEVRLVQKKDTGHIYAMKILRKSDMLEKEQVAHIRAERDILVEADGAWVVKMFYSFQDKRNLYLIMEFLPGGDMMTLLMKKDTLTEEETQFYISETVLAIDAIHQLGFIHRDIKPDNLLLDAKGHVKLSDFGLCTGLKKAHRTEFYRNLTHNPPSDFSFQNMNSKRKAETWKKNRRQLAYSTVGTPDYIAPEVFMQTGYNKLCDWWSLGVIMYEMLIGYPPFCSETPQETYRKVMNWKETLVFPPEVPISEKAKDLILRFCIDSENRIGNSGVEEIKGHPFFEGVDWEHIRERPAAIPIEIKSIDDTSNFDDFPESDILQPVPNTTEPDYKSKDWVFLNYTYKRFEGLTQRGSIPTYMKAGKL
T7 sequence (O43293 whole entry): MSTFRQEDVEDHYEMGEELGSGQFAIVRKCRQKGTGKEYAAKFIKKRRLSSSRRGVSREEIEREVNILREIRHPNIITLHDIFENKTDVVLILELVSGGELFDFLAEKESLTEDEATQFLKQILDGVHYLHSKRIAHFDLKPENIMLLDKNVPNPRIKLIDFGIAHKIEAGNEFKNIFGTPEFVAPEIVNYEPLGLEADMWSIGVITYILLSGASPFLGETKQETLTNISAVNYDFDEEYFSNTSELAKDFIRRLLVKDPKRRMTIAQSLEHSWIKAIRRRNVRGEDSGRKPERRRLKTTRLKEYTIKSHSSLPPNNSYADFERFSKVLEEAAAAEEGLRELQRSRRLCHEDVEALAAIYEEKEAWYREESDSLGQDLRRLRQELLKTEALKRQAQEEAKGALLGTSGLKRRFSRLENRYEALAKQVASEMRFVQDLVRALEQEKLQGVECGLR
T23 sequence (O14730 whole entry): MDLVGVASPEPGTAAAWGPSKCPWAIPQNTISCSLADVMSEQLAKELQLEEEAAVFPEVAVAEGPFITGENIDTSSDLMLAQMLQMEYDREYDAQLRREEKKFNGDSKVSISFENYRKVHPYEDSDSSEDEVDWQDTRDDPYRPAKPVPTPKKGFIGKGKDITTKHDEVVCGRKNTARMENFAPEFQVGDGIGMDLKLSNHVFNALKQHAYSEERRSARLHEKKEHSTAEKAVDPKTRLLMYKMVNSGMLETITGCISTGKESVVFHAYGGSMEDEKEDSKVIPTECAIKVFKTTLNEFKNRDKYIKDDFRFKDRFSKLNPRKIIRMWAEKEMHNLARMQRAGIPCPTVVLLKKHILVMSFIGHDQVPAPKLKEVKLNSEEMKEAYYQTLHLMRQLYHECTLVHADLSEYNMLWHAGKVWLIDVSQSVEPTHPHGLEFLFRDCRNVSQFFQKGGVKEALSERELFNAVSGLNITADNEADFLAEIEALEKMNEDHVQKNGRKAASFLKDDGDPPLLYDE
T4 sequence (O43683 whole entry): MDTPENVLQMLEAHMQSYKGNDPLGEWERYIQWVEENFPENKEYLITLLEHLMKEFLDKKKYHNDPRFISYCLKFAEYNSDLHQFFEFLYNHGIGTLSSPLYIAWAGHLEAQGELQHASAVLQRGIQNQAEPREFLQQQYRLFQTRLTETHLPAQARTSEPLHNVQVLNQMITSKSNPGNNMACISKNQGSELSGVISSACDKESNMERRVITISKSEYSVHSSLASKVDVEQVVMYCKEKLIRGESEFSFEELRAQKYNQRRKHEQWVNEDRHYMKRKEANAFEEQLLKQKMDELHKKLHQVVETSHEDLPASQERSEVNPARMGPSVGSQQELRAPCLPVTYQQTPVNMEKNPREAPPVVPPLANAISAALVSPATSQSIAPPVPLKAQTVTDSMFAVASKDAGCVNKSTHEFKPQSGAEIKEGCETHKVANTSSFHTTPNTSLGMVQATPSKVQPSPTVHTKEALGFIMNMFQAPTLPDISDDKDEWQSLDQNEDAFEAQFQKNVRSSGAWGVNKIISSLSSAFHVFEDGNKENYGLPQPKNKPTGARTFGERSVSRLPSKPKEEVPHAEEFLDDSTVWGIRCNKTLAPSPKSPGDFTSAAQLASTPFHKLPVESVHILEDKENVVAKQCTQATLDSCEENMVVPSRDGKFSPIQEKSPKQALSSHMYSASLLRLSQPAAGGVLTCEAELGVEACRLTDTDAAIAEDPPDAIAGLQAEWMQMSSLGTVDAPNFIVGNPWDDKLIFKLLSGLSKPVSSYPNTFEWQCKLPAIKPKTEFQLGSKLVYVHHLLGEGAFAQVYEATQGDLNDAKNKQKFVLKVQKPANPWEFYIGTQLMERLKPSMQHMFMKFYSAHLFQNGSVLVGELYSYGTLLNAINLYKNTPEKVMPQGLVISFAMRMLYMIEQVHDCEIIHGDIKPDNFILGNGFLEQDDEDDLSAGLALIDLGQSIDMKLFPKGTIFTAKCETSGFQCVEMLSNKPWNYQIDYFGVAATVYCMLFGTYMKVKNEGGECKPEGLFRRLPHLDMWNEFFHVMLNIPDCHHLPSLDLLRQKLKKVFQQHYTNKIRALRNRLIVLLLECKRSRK
T30 sequence (O75385 whole entry): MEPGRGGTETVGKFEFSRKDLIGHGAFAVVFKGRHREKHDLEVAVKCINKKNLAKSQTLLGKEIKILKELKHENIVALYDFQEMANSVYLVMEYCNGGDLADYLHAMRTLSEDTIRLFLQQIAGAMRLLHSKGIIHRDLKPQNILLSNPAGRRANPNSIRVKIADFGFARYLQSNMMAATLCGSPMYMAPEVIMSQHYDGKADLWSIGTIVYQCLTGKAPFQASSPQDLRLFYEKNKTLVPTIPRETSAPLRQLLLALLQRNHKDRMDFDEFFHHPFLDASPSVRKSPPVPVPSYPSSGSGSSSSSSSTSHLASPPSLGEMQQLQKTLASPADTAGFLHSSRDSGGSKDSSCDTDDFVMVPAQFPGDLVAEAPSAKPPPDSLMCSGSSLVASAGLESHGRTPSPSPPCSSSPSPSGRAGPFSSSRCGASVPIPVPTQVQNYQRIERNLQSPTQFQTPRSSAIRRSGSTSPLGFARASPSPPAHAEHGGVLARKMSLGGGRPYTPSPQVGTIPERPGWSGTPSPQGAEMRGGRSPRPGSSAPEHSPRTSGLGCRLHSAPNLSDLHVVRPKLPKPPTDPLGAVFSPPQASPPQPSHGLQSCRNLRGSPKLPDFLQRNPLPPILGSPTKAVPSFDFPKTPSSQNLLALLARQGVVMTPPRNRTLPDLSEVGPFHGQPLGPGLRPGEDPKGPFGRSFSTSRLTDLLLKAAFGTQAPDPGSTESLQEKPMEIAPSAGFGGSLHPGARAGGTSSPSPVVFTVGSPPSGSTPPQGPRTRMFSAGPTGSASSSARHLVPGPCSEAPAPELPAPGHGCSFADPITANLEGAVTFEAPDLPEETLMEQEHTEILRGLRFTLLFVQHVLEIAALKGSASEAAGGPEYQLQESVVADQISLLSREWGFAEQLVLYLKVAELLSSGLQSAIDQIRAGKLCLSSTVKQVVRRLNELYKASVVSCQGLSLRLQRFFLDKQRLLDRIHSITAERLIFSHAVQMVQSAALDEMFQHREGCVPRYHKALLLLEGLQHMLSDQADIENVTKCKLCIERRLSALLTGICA
T29 sequence (P42681 whole entry): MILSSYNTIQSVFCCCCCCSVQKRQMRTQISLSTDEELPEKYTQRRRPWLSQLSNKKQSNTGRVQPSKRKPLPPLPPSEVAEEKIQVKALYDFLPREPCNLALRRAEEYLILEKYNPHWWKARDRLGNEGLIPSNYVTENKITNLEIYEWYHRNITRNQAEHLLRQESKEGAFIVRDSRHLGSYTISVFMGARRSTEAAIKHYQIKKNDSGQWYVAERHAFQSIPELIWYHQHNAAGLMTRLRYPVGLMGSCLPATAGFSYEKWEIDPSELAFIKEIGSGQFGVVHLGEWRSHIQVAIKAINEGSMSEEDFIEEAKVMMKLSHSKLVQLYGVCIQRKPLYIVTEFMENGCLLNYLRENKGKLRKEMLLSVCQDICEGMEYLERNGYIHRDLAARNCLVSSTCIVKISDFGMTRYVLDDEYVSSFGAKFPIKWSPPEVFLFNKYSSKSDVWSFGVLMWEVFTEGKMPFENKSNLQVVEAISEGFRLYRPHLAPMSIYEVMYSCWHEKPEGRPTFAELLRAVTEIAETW
T15 sequence (Q9Y4K4 whole entry): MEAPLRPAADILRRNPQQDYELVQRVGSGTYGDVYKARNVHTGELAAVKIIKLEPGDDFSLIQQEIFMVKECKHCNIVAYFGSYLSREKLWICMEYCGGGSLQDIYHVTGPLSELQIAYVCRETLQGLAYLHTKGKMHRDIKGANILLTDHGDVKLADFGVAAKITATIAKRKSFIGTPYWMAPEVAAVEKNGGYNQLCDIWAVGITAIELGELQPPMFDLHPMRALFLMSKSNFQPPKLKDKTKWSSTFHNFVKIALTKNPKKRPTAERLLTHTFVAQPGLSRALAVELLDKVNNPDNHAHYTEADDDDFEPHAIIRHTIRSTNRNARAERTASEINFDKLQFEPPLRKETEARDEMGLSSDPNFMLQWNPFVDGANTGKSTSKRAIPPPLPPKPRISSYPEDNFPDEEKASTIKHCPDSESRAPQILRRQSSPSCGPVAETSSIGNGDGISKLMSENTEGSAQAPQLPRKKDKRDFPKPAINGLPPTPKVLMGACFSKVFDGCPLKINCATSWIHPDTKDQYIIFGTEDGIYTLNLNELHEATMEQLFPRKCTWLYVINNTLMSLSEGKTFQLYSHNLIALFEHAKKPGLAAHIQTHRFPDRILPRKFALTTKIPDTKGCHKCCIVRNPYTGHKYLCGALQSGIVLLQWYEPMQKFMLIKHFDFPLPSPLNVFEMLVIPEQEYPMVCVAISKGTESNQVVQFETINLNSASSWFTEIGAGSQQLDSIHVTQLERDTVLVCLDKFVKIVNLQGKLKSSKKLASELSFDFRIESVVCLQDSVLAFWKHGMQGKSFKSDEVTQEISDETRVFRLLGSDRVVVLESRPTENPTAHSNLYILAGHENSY

## Cc1cc(Nc2ccc(F)c(CC3(C(=O)N4CCC(F)(CN5CCN(c6ccc(N7CCC(=O)NC7=O)cn6)CC5)CC4)CCN(Cc4cccc(Cl)c4F)CC3)n2)n[nH]1 [SK5527]
[1]; 100 nM
  remaining binding at 0.1 µM: 95%
[1]; 1000 nM
  remaining binding at 1 µM: 69%
[2]; 100 nM
  remaining binding at 0.1 µM: 91%
[2]; 1000 nM
  remaining binding at 1 µM: 100%
[3]; 100 nM
  remaining binding at 0.1 µM: 100%
[3]; 1000 nM
  remaining binding at 1 µM: 100%
[4]; 100 nM
  remaining binding at 0.1 µM: 100%
[4]; 1000 nM
  remaining binding at 1 µM: 100%
[5]; 100 nM
  remaining binding at 0.1 µM: 100%
[5]; 1000 nM
  remaining binding at 1 µM: 100%
[6]; 100 nM
  remaining binding at 0.1 µM: 100%
[6]; 1000 nM
  remaining binding at 1 µM: 92%
[7]; 100 nM
  remaining binding at 0.1 µM: 100%
[7]; 1000 nM
  remaining binding at 1 µM: 100%
[8]; 100 nM
  remaining binding at 0.1 µM: 100%
[8]; 1000 nM
  remaining binding at 1 µM: 97%
[9]; 100 nM
  Percent Control: 83%
[9]; 1000 nM
  Percent Control: 74%
[10]; 100 nM
  remaining binding at 0.1 µM: 100%
[10]; 1000 nM
  remaining binding at 1 µM: 92%
[11]; 100 nM
  remaining binding at 0.1 µM: 98%
[11]; 1000 nM
  remaining binding at 1 µM: 100%
[12]; 100 nM
  remaining binding at 0.1 µM: 100%
[12]; 1000 nM
  remaining binding at 1 µM: 94%
[13]; 100 nM
  remaining binding at 0.1 µM: 100%
[13]; 1000 nM
  remaining binding at 1 µM: 100%
[14]; 100 nM
  remaining binding at 0.1 µM: 100%
[14]; 1000 nM
  remaining binding at 1 µM: 100%
[15]; 100 nM
  remaining binding at 0.1 µM: 100%
[15]; 1000 nM
  remaining binding at 1 µM: 100%
[16]; 100 nM
  remaining binding at 0.1 µM: 100%
[16]; 1000 nM
  remaining binding at 1 µM: 100%
[17]; 100 nM
  remaining binding at 0.1 µM: 84%
[17]; 1000 nM
  remaining binding at 1 µM: 100%
[18]; 100 nM
  remaining binding at 0.1 µM: 100%
[18]; 1000 nM
  remaining binding at 1 µM: 91%
[19]; 100 nM
  remaining binding at 0.1 µM: 90%
[19]; 1000 nM
  remaining binding at 1 µM: 91%
[20]; 100 nM
  remaining binding at 0.1 µM: 74%
[20]; 1000 nM
  remaining binding at 1 µM: 73%
[21]; 100 nM
  remaining binding at 0.1 µM: 58%
[21]; 1000 nM
  remaining binding at 1 µM: 76%
[22]; 100 nM
  remaining binding at 0.1 µM: 96%
[22]; 1000 nM
  remaining binding at 1 µM: 100%
[23]; 100 nM
  remaining binding at 0.1 µM: 79%
[23]; 1000 nM
  remaining binding at 1 µM: 96%
[24]; 100 nM
  remaining binding at 0.1 µM: 96%
[24]; 1000 nM
  remaining binding at 1 µM: 82%
[25]; 100 nM
  remaining binding at 0.1 µM: 96%
[25]; 1000 nM
  remaining binding at 1 µM: 81%
[26]; 100 nM
  remaining binding at 0.1 µM: 100%
[26]; 1000 nM
  remaining binding at 1 µM: 100%
[27]; 100 nM
  remaining binding at 0.1 µM: 86%
[27]; 1000 nM
  remaining binding at 1 µM: 64%
[28]; 100 nM
  remaining binding at 0.1 µM: 99%
[28]; 1000 nM
  remaining binding at 1 µM: 80%
[29]; 100 nM
  remaining binding at 0.1 µM: 100%
[29]; 1000 nM
  remaining binding at 1 µM: 100%
[30]; 100 nM
  remaining binding at 0.1 µM: 75%
[30]; 1000 nM
  remaining binding at 1 µM: 78%
[31]; 100 nM
  remaining binding at 0.1 µM: 92%
[31]; 1000 nM
  remaining binding at 1 µM: 91%
[32]; 100 nM
  remaining binding at 0.1 µM: 100%
[32]; 1000 nM
  remaining binding at 1 µM: 100%
[33]; 100 nM
  remaining binding at 0.1 µM: 100%
[33]; 1000 nM
  remaining binding at 1 µM: 99%

Reference: article PMC12670405, “Second-Generation AURKA-Targeting PROTACs: Structural Optimization toward in Vivo Degradation in Neuroblastoma” (Journal of Medicinal Chemistry, 2025)
